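Step 1: Grow cells in 96-well plates. Step 2: Expose to compound for 48 hours at 5 concentrations. Step 3: Interpolate endpoints linearly; if unreached, use highest concentration. The concentration for 50% growth inhibition is given as GI50.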 Calls of active or inactive are those of the source. No stated cut-off is given here; in the data, active = GI50 up to about 1.1 µM and inactive = higher.
Legend:
Assay in all cases: growth of human tumour cells (NCI), 48 h
NCI-H226 = system: NCI-H226
RXF 393 = system: RXF 393
SNB-19 = system: SNB-19
SK-MEL-28 = system: SK-MEL-28
ACHN = system: ACHN
HT-29 = system: HT-29
HCC 2998 = system: HCC 2998
U-251 = system: U-251
HOP-62 = system: HOP-62
CCRF-CEM = system: CCRF-CEM
SK-MEL-5 = system: SK-MEL-5
UACC-62 = system: UACC-62
NCI/ADR-RES = system: NCI/ADR-RES
K562 = system: K562
SNB-75 = system: SNB-75
786-0 = system: 786-0
PC-3 = system: PC-3
SF-539 = system: SF-539
UACC-257 = system: UACC-257
MOLT-4 = system: MOLT-4
MDA-MB-231 = system: MDA-MB-231
HCT-15 = system: HCT-15
SF-295 = system: SF-295
SR = system: SR
COLO 205 = system: COLO 205
HL-60 = system: HL-60
CAKI-1 = system: CAKI-1
UO-31 = system: UO-31
EKVX = system: EKVX
NCI-H23 = system: NCI-H23
TK-10 = system: TK-10
Malme-3M = system: Malme-3M
SN12C = system: SN12C
SK-MEL-2 = system: SK-MEL-2
Hs-578T = system: Hs-578T
SK-OV-3 = system: SK-OV-3
MDA-N = system: MDA-N
A498 = system: A498
IGROV-1 = system: IGROV-1
DU-145 = system: DU-145
RPMI-8226 = system: RPMI-8226
SF-268 = system: SF-268
M14 = system: M14
KM12 = system: KM12
OVCAR-8 = system: OVCAR-8
BT-549 = system: BT-549
LOX IMVI = system: LOX IMVI
HCT-116 = system: HCT-116
MCF7 = system: MCF7
NCI-H522 = system: NCI-H522
A549 = system: A549
T47D = system: T47D
SW-620 = system: SW-620
MDA-MB-435 = system: MDA-MB-435
OVCAR-5 = system: OVCAR-5
NCI-H460 = system: NCI-H460
OVCAR-4 = system: OVCAR-4
OVCAR-3 = system: OVCAR-3

Compound: C=CCOc1ccc(N)c([N+](=O)[O-])c1
- GI50 (NCI-H226): > 100 µM (inactive)
- GI50 (RXF 393): > 100 µM (inactive)
- GI50 (SNB-19): > 100 µM (inactive)
- GI50 (SK-MEL-28): > 100 µM (inactive)
- GI50 (ACHN): > 100 µM (inactive)
- GI50 (HT-29): > 100 µM (inactive)
- GI50 (HCC 2998): > 100 µM (inactive)
- GI50 (U-251): > 100 µM (inactive)
- GI50 (HOP-62): > 100 µM (inactive)
- GI50 (CCRF-CEM): > 100 µM (inactive)
- GI50 (SK-MEL-5): > 100 µM (inactive)
- GI50 (UACC-62): > 100 µM (inactive)
- GI50 (NCI/ADR-RES): > 100 µM (inactive)
- GI50 (K562): > 100 µM (inactive)
- GI50 (SNB-75): 89.3 µM (inactive)
- GI50 (786-0): > 100 µM (inactive)
- GI50 (PC-3): > 100 µM (inactive)
- GI50 (SF-539): > 100 µM (inactive)
- GI50 (UACC-257): > 100 µM (inactive)
- GI50 (MOLT-4): > 100 µM (inactive)
- GI50 (MDA-MB-231): > 10 µM (inactive)
- GI50 (HCT-15): > 100 µM
- GI50 (SF-295): > 100 µM (inactive)
- GI50 (SR): > 100 µM (inactive)
- GI50 (COLO 205): > 100 µM (inactive)
- GI50 (HL-60): > 100 µM (inactive)
- GI50 (CAKI-1): > 100 µM (inactive)
- GI50 (UO-31): 94.4 µM (inactive)
- GI50 (EKVX): > 100 µM (inactive)
- GI50 (NCI-H23): > 100 µM (inactive)
- GI50 (TK-10): > 100 µM (inactive)
- GI50 (Malme-3M): > 100 µM (inactive)
- GI50 (SN12C): > 100 µM (inactive)
- GI50 (SK-MEL-2): > 100 µM (inactive)
- GI50 (Hs-578T): > 100 µM (inactive)
- GI50 (SK-OV-3): > 100 µM (inactive)
- GI50 (MDA-N): > 100 µM (inactive)
- GI50 (A498): 33.3 µM (inactive)
- GI50 (IGROV-1): > 100 µM (inactive)
- GI50 (DU-145): > 100 µM (inactive)
- GI50 (RPMI-8226): > 100 µM (inactive)
- GI50 (SF-268): > 100 µM (inactive)
- GI50 (M14): > 100 µM (inactive)
- GI50 (KM12): > 100 µM (inactive)
- GI50 (OVCAR-8): > 100 µM (inactive)
- GI50 (BT-549): > 100 µM (inactive)
- GI50 (LOX IMVI): > 100 µM (inactive)
- GI50 (HCT-116): > 100 µM (inactive)
- GI50 (MCF7): > 100 µM (inactive)
- GI50 (NCI-H522): 63.4 µM (inactive)
- GI50 (A549): > 100 µM (inactive)
- GI50 (T47D): > 100 µM (inactive)
- GI50 (SW-620): > 100 µM (inactive)
- GI50 (MDA-MB-435): > 100 µM (inactive)
- GI50 (OVCAR-5): > 100 µM (inactive)

Compound: CCOC(=O)NNC(=O)NCCNC(=O)NNC(=O)OCC
- GI50 (NCI-H226): 98.6 µM (inactive)
- GI50 (RXF 393): > 100 µM (inactive)
- GI50 (SNB-19): > 100 µM (inactive)
- GI50 (SK-MEL-28): > 100 µM (inactive)
- GI50 (NCI-H460): > 100 µM (inactive)
- GI50 (HT-29): > 100 µM (inactive)
- GI50 (HCC 2998): > 100 µM (inactive)
- GI50 (U-251): > 100 µM (inactive)
- GI50 (CCRF-CEM): > 100 µM (inactive)
- GI50 (SK-MEL-5): > 100 µM (inactive)
- GI50 (UACC-62): > 100 µM (inactive)
- GI50 (NCI/ADR-RES): > 100 µM (inactive)
- GI50 (K562): > 100 µM (inactive)
- GI50 (SNB-75): > 100 µM (inactive)
- GI50 (786-0): > 100 µM (inactive)
- GI50 (PC-3): > 100 µM (inactive)
- GI50 (SF-539): > 100 µM (inactive)
- GI50 (UACC-257): > 100 µM (inactive)
- GI50 (MOLT-4): > 100 µM (inactive)
- GI50 (MDA-MB-231): > 100 µM (inactive)
- GI50 (HCT-15): > 100 µM
- GI50 (SR): > 100 µM (inactive)
- GI50 (COLO 205): > 100 µM (inactive)
- GI50 (HL-60): > 100 µM (inactive)
- GI50 (CAKI-1): > 100 µM (inactive)
- GI50 (UO-31): > 100 µM (inactive)
- GI50 (EKVX): > 100 µM (inactive)
- GI50 (NCI-H23): > 100 µM (inactive)
- GI50 (TK-10): > 100 µM (inactive)
- GI50 (Malme-3M): > 100 µM (inactive)
- GI50 (OVCAR-4): > 100 µM (inactive)
- GI50 (SN12C): > 100 µM (inactive)
- GI50 (SK-MEL-2): > 100 µM (inactive)
- GI50 (Hs-578T): > 100 µM (inactive)
- GI50 (SK-OV-3): > 100 µM (inactive)
- GI50 (MDA-N): > 100 µM (inactive)
- GI50 (A498): > 100 µM (inactive)
- GI50 (OVCAR-3): > 100 µM (inactive)
- GI50 (DU-145): > 100 µM (inactive)
- GI50 (RPMI-8226): > 100 µM (inactive)
- GI50 (SF-268): > 100 µM (inactive)
- GI50 (M14): > 100 µM (inactive)
- GI50 (KM12): > 100 µM (inactive)
- GI50 (OVCAR-8): > 100 µM (inactive)
- GI50 (BT-549): > 100 µM (inactive)
- GI50 (LOX IMVI): > 100 µM (inactive)
- GI50 (HCT-116): > 100 µM (inactive)
- GI50 (MCF7): > 100 µM (inactive)
- GI50 (NCI-H522): > 100 µM (inactive)
- GI50 (A549): > 100 µM (inactive)
- GI50 (T47D): > 100 µM (inactive)
- GI50 (SW-620): > 100 µM (inactive)
- GI50 (MDA-MB-435): > 100 µM (inactive)
- GI50 (OVCAR-5): 69.3 µM (inactive)
